Test results taken from patent US20180036439A1, “COUPLED IDENTIFICATION AND TREATMENT OF CANCER” (priority 2009, published 2018).

Legend:
Assay type in all cases: in vivo, human
[1] = tolerability of Nexavar treatment in the subject with primary liver cancer; conditions: 800 mg/day, terminated after about 10 weeks; one patient
Protocol: (§1) The subject of this study was a person who was diagnosed with non-resectable primary liver cancer (hepatocellular carcinoma). The diagnosis was based on results of x-ray CT scans and tumor biopsy. Within two weeks of diagnosis the subject began treatment with Nexavar® (sorafenib) at a dose of 800 mg/day.

[2] = system: liver tumors (hepatocellular carcinoma); experiment: gallium scan (planar and SPECT) after intravenous ^67Ga citrate; conditions: 134 MBq ^67Ga citrate i.v., one patient
Protocol: Very briefly, a gallium scan is performed by administering a small amount of a gallium radioisotope (usually ^67Ga) to a subject and then scanning the subject to map the distribution of resulting radioactivity in the body; the amount of radioactivity will be directly proportional to the uptake of gallium. Scanning is performed on the whole body or portions of the body using a scintillation detector or other suitable radiation detector.
Scanning is performed using a scintillation detector or another detector that is sensitive to the radiation produced by the gallium radioisotope (e.g., gamma rays for ^67Ga). For ^67Ga, a multipeak gamma camera with a large field of view and head shielding is commonly used. Scans may be either planar (two-dimensional (2-D) imaging) or as multiple tomographic scans leading to three-dimensional (3-D) imaging. The latter scans generally employ single-photon emission computerized tomography (SPECT or SPET), which may provide higher contrast and localization than planar images alone.
Planar and SPECT images were obtained 48 hours after ^67Ga citrate administration. […] At that time the subject was experiencing moderate nausea, anorexia, and fatigue, with severe pain and tenderness of the right abdomen that prevented the subject from lying on their right side.

[3] = system: non-resectable primary liver cancer (hepatocellular carcinoma); experiment: oral gallium maltolate treatment of a subject with primary liver cancer; conditions: one patient
Protocol: as §1
Based on the high avidity of the subject's hepatocellular carcinoma for gallium, as shown by the gallium scans, treatment of the patient with orally administered gallium maltolate was initiated. Treatment was started about a week after the gallium scans were performed. Gallium maltolate was administered as two 750 mg tablets taken once per day before breakfast (for a dose of 1500 mg/day). The largest tumor was about 20 cm in diameter by CT scan at three weeks before gallium maltolate administration was started.
The patient reported that their right abdominal pain was nearly gone, and they could lie and sleep on their right side.

[4] = about four months into treatment, 1500 mg/day oral
[5] = two weeks after start of 1500 mg/day oral

For `CNC(=O)c1cc(Oc2ccc(NC(=O)Nc3ccc(Cl)c(C(F)(F)F)c3)cc2)ccn1` [Nexavar®, sorafenib], the “adverse effects that led to termination of treatment” value [1] was “severe peripheral neuropathy, nausea, fatigue, gastrointestinal disorders, and anorexia”.
With `O=C([O-])CC(O)(CC(=O)[O-])C(=O)[O-].[67Ga+3]` [^67Ga citrate] the “gallium uptake in the surrounding liver tissue and in other organs” value ([2]; images 48 hours after administration) was “very low uptake” and the “gallium uptake in the liver tumors, average counts per second relative to surrounding healthy liver tissue” value ([2]; planar and SPECT images 48 hours after administration) was “twenty to fifty”.
For `Cc1occc(=O)c1[O-].Cc1occc(=O)c1[O-].Cc1occc(=O)c1[O-].[Ga+3]` [gallium maltolate, tris(3-hydroxy-2-methyl-4H-pyran-4-onato)gallium], the “state of the primary tumor by CT scan” value [3, 4] was “apparent necrosis of the primary tumor”, the “tumor growth by CT scan” value [3, 4] was “no new tumor growth” and the “patient's condition” value ([3]; over the next six months of treatment, 1500 mg/day oral) was “continued to improve”. For the same compound, the “serum bilirubin (total)” value ([3]; two weeks after start of 1500 mg/day oral, before treatment 27.5, normal 2-20) was 11.9 µmol/L, the “serum AST” value ([3]; two weeks after start of 1500 mg/day oral, before treatment 132, normal 0-40) was 70 IU/L and the “ability to engage in normal activities” value [3, 5] was “substantially increased”. For the same compound, the “right abdominal pain (patient report)” value [3, 5] was “nearly gone”.
